# Results published in patent EP1301165B1, “USE OF AN ALLOMELANIN FOR THE TREATMENT OF INFLAMMATION OR IRRITANCY CAUSED BY DHA AND/OR A SURFACTANT” (Croda Chemicals International Limited, priority 2000, dated 2002).
# Experiments:
# [1] = Water solubility; type: physicochemical
# Source text: In contrast, conventional melanins are virtually insoluble. Our melanin derived from caffeic acid has a solubility of about 220g/l. Since caffeic acid has a solubility of below 1g/l, and polymerisation generally leads to a reduction in solubility, this is quite remarkable.
# [2] = Fragrance stabilisation test (eau de toilette, daily 37°C / 4°C / sunlight cycle for 7 days, aroma assessed); conditions: daily cycle repeated for 7 days
# Method: To test the stability of a fragrance in the form of an eau de toilette ("EDT"), we use aliquots of the EDT to which are added two or more concentrations of our melanin ("EDT'') and, as reference examples, two concentrations of BHT (butyrated hydroxytoluene, a known antioxidant used in cosmetics). A further aliquot of the original eau de toilette is used as a control. Test samples are made in clear glass bottles that are half filled with the test samples. This is to allow some penetration of UV light and sufficient gas in the headspace to allow oxidative deterioration of the fragrance to occur.
# Samples are stored at 37°C overnight, then are cooled to 4°C and then allowed to stand in direct sunlight, for the rest of the day, being returned to 37°C. In addition bottles are opened before and after the 37°C incubation. This daily cycle is repeated for 7 days and the aromas of each assessed.
# [3] = system: skin; experiment: Surfactant sensitivity: skin irritation by 24 hour SLES patch, skin colour by Chroma Meter; type: in vivo, human
# Method: The effectiveness of our melanin in reducing skin irritation due to a surfactant was investigated. Two human subjects were used. The effect of applying to skin for 24 hours a patch containing a 70% solution of sodium lauryl ether sulphate ('SLES') was compared with the effect of applying an identical patch also containing 0.3% of our melanin ('M'). The colour of the treated skin was monitored for several days using a Chroma Meter. The changes in degrees of redness are tabulated below.
compound,measurement,setting,value
O=C(O)/C=C/c1ccc(O)c(O)c1 [caffeic acid],solubility,[1],< 1000 µg/mL
"Cc1cc(C(C)(C)C)c(O)c(C(C)(C)C)c1 [BHT, butyrated hydroxytoluene]",fragrance stability (aroma),[2],markedly superior to the control
sodium lauryl ether sulphate [SLES],Redness Change,"[3]; Subject 1, Day 1, patch applied for 24 hours",+6.3
same,Redness Change,"[3]; Subject 1, Day 2",+4.2
same,Redness Change,"[3]; Subject 1, Day 6",+0.3
same,Redness Change,"[3]; Subject 2, Day 1, patch applied for 24 hours",+3.5
same,Redness Change,"[3]; Subject 2, Day 2",+2.3
same,Redness Change,"[3]; Subject 2, Day 7",+0.6
